# Experimental data taken from the supplement of paper PMC10307832.
# Legend:
# Assay in all cases: relative viability (nuclei count vs DMSO), 5 days (fraction); higher = more cells survive
# [1] = compound: CN(C)C[C@@H]1CCn2cc(c3ccccc32)C2=C(C(=O)NC2=O)c2cn(c3ccccc23)CCO1 [Ruboxistaurin] + Cc1nc(NC(=O)N2CCC[C@H]2C(N)=O)sc1-c1ccnc(C(C)(C)C(F)(F)F)c1 [Alpelisib] (partner 2 µM)
# Procedure, shortened: (§1)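 Relative viability is defined as nuclei in treated wells over nuclei in vehicle wells. Duplicate plates were run and medians reported. Lung cancer cell lines in 1536-well plates were dosed by pin tool one day after seeding, with one drug or with a fixed anchor-drug dose plus five library-drug doses (not always all listed) in √10 steps, and nuclei were counted after 5 days.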
# [2] = compound: CN(C)C[C@@H]1CCn2cc(c3ccccc32)C2=C(C(=O)NC2=O)c2cn(c3ccccc23)CCO1 [Ruboxistaurin] + Nc1nc2[nH]cc(CCc3ccc(C(=O)N[C@@H](CCC(=O)O)C(=O)O)cc3)c2c(=O)[nH]1 [Pemetrexed] (partner 0.2 µM)
# Procedure, shortened: as §1
# [3] = compound: CN(C)C[C@@H]1CCn2cc(c3ccccc32)C2=C(C(=O)NC2=O)c2cn(c3ccccc23)CCO1 [Ruboxistaurin] + Nc1ncn([C@H]2C[C@H](O)[C@@H](CO)O2)c(=O)n1 [Decitabine] (partner 2 µM)
# Procedure, shortened: as §1
# [4] = compound: CN(C)C[C@@H]1CCn2cc(c3ccccc32)C2=C(C(=O)NC2=O)c2cn(c3ccccc23)CCO1 [Ruboxistaurin] + O=C(CCCCCCC(=O)Nc1ccccc1)NO [Vorinostat] (partner 1 µM)
# Procedure, shortened: as §1
# Ruboxistaurin + Olaparib = compound: CN(C)C[C@@H]1CCn2cc(c3ccccc32)C2=C(C(=O)NC2=O)c2cn(c3ccccc23)CCO1 [Ruboxistaurin] + O=C(c1cc(Cc2n[nH]c(=O)c3ccccc23)ccc1F)N1CCN(C(=O)C2CC2)CC1 [Olaparib] (partner 8 µM)
# Procedure, shortened: as §1
Cell Line,relative viability ([1]; first compound 0.08 µM),relative viability ([1]; first compound 0.8 µM),relative viability ([1]; first compound 2.53 µM),relative viability ([1]; first compound 8 µM),relative viability ([2]; first compound 0.08 µM),relative viability ([2]; first compound 0.8 µM),relative viability ([2]; first compound 2.53 µM),relative viability ([2]; first compound 8 µM),relative viability ([3]; first compound 0.08 µM),relative viability ([3]; first compound 0.8 µM),relative viability ([3]; first compound 2.53 µM),relative viability ([3]; first compound 8 µM),relative viability ([4]; first compound 0.08 µM),relative viability ([4]; first compound 0.8 µM),relative viability ([4]; first compound 2.53 µM),relative viability ([4]; first compound 8 µM),relative viability (Ruboxistaurin + Olaparib; first compound 0.08 µM),relative viability (Ruboxistaurin + Olaparib; first compound 0.8 µM),relative viability (Ruboxistaurin + Olaparib; first compound 2.53 µM),relative viability (Ruboxistaurin + Olaparib; first compound 8 µM)
PC-14,1.03,0.887,0.881,1,0.135,0.136,0.136,0.115,0.283,0.203,0.293,0.295,0.892,0.668,0.785,0.648,0.246,0.302,0.364,0.256
SK-LU-1,1.07,0.81,0.921,0.782,0.944,0.913,1.12,0.954,0.744,0.573,0.668,0.751,0.946,0.722,0.776,0.657,0.483,0.397,0.536,0.469
NCI-H1437,1.12,0.868,1.03,1.02,0.309,0.299,0.315,0.313,0.571,0.621,0.622,0.702,0.834,0.724,0.825,0.798,0.661,0.613,0.666,0.712
NCI-H1734,0.768,0.641,0.663,0.57,0.425,0.394,0.4,0.4,0.535,0.466,0.501,0.521,0.861,0.714,0.815,0.624,0.647,0.518,0.601,0.514
LK-2,1.19,1.01,1,0.577,0.266,0.346,0.309,0.242,0.356,0.315,0.402,0.238,0.362,0.323,0.33,0.222,0.741,0.687,0.649,0.505
HCC-15,0.867,0.714,0.909,0.743,0.224,0.207,0.221,0.2,0.699,0.576,0.666,0.685,0.975,0.74,0.925,0.833,0.792,0.651,0.777,0.867
HCC-366,0.536,0.326,0.373,0.226,0.181,0.182,0.158,0.209,0.361,0.351,0.325,0.317,0.407,0.434,0.374,0.307,0.4,0.364,0.372,0.269
NCI-H650,1.17,0.888,1.12,1.12,0.995,0.948,0.981,0.817,0.312,0.343,0.296,0.34,0.456,0.383,0.454,0.717,0.462,0.352,0.47,0.425
